Molecules are shown by their SMILES.

For the assay, the system named is GBM cells. The assay can be described thus: GBM cell viability (MTT assay). The note with it: FIG. 3, read-out: concentration that reduces cell viability by 50%. The class given is cell-based. Here is the method: To assess, the antitumor activity of the new ERβ agonist compounds, GBM cells were assessed for viability using a commercially available MTT assay. Briefly, the assay determines the number of viable cells in culture by […], which indicates the presence of metabolically active cells. Previously described agonists such as LY was able to reduce viability by 50% with concentration of 10 μM or greater. The new compounds described in this disclosure have higher potency than existing compounds and some reduce cell viability by 50% at concentrations even at 3 μM (FIG. 3).
Background: Tetrazolium dyes change colour on reduction, which living cells bring about.

Regarding `Oc1ccc([C@@H]2Oc3ccc(O)cc3[C@@H]3CCC[C@@H]32)cc1` [LY, (3aS,4R,9bR)-4-(4-hydroxyphenyl)-1,2,3,3a,4,9b-hexahydrocyclopenta[c]chromen-8-ol], the IC50 was not below 10 µM.

Values taken from patent US20240246903A1, “INDANONE AND TETRALONEKETO OR HYDROXYL OXIMES AS CANCEL THERAPEUTICS” (Board of Regents, The University of Texas System, priority 2021, published 2024).
